Source: ChEMBL document CHEMBL1149685, “Novel tethers in ketolide antibiotics” (2007)
In brackets after ≈: the same amount, converted by molar mass. Activity calls are given as the source filed them. No cut-off for these calls is given here.

Legend:
Assay type in all cases: functional
[1] = test system: Haemophilus influenzae; assay: Antimicrobial activity against Haemophilus influenzae 1325
[2] = test system: Streptococcus pyogenes; assay: Antibacterial activity against erythromycin-resistant ermB expressing Streptococcus pyogenes 1079
[3] = test system: Streptococcus pneumoniae; assay: Antibacterial activity against erythromycin-resistant mef expressing Streptococcus pneumoniae 1175
[4] = test system: Streptococcus pneumoniae; assay: Antibacterial activity against erythromycin-resistant ermB expressing Streptococcus pneumoniae 1095
[5] = test system: Streptococcus pyogenes; assay: Antibacterial activity against erythromycin-resistant Streptococcus pyogenes 1068 in mouse soft tissue infection model assessed as reduction in bacterial count at 100 mg/kg, po after 24 hrs
[6] = test system: Haemophilus influenzae; assay: Antibacterial activity against Haemophilus influenzae 1100 in po dosed gerbils
[7] = test system: Streptococcus pneumoniae; assay: Protection against erythromycin-resistant Streptococcus pneumoniae 1095 infection in po dosed mouse after 4 days
[8] = Streptococcus pneumoniae, read-out: MIC

SMILES | MIC [1] [µg/mL] | MIC [2] [µg/mL] | MIC [3] [µg/mL] | MIC [4, 8] [µg/mL] | Log10 cfu [5] | ED50 [6] [mg/kg] | PD50 [7] [mg/kg] | MIC [4] [µg/mL] | Activity [5]
CC[C@H]1OC(=O)[C@H](C)C(=O)[C@H](C)[C@@H](O[C@@H]2O[C@H](C)C[C@H](N(C)C)[C@H]2O)[C@](C)(OC)C[C@@H](C)C(=O)[C@H](C)[C@H]2N(CNC(=O)NCc3cncc4ccccc34)C(=O)O[C@]12C | 4 (≈ 4.84 µM) | 16 (≈ 19.4 µM) | < 0.063 | < 0.063 |  |  |  |  | 
CC[C@H]1OC(=O)[C@H](C)C(=O)[C@H](C)[C@@H](O[C@@H]2O[C@H](C)C[C@H](N(C)C)[C@H]2O)[C@](C)(OC)C[C@@H](C)C(=O)[C@H](C)[C@H]2N(CNC(=O)OCc3ccnc4ccccc34)C(=O)O[C@]12C | 8 (≈ 9.67 µM) | 64 (≈ 77.4 µM) | < 0.063 | 0.5 (≈ 0.605 µM) |  |  |  |  | 
CC[C@H]1OC(=O)[C@H](C)C(=O)[C@H](C)[C@@H](O[C@@H]2O[C@H](C)C[C@H](N(C)C)[C@H]2O)[C@](C)(OC)C[C@@H](C)C(=O)[C@H](C)[C@H]2N(CCNC(=O)NCc3cnc4ccccc4c3)C(=O)O[C@]12C | 16 (≈ 19 µM) | > 64 | 0.5 (≈ 0.595 µM) | > 64 |  |  |  |  | 
CC[C@H]1OC(=O)[C@H](C)C(=O)[C@H](C)[C@@H](O[C@@H]2O[C@H](C)C[C@H](N(C)C)[C@H]2O)[C@](C)(OC)C[C@@H](C)C(=O)[C@H](C)[C@H]2N(CNC(=O)NCc3ccc4cccnc4c3)C(=O)O[C@]12C | 4 (≈ 4.84 µM) | 64 (≈ 77.5 µM) | 0.5 (≈ 0.605 µM) | < 0.063 |  |  |  |  | 
CC[C@H]1OC(=O)[C@H](C)C(=O)[C@H](C)[C@@H](O[C@@H]2O[C@H](C)C[C@H](N(C)C)[C@H]2O)[C@](C)(OC)C[C@@H](C)C(=O)[C@H](C)[C@H]2N(CNC(=O)OCc3ccc4cccnc4c3)C(=O)O[C@]12C | 4 (≈ 4.84 µM) | 64 (≈ 77.4 µM) | < 0.063 | < 0.063 |  |  |  |  | 
CC[C@H]1OC(=O)[C@H](C)C(=O)[C@H](C)[C@@H](O[C@@H]2O[C@H](C)C[C@H](NC)[C@H]2O)[C@](C)(OC)C[C@@H](C)C(=O)[C@H](C)[C@H]2N(CNC(=O)OCc3cnc4ccccc4c3)C(=O)O[C@]12C | 8 (≈ 9.84 µM) | 64 (≈ 78.7 µM) | < 0.063 | < 0.063 |  |  |  |  | 
CC[C@H]1OC(=O)[C@@](C)(F)C(=O)[C@H](C)[C@@H](O[C@@H]2O[C@H](C)C[C@H](N(C)C)[C@H]2O)[C@](C)(OC)C[C@@H](C)C(=O)[C@H](C)[C@H]2N(CNC(=O)OCc3cccc4nccnc34)C(=O)O[C@]12C | 4 (≈ 4.73 µM) | 22.6 (≈ 26.7 µM) | < 0.063 | < 0.063 |  |  |  |  | 
CC[C@H]1OC(=O)[C@H](C)C(=O)[C@H](C)[C@@H](O[C@@H]2O[C@H](C)C[C@H](N(C)C)[C@H]2O)[C@](C)(OC)C[C@@H](C)C(=O)[C@H](C)[C@H]2N(CNC(=O)OCc3ccc4nccnc4c3)C(=O)O[C@]12C | 2 (≈ 2.42 µM) | 16 (≈ 19.3 µM) | < 0.063 | < 0.063 |  |  |  |  | 
CC[C@H]1OC(=O)[C@H](C)C(=O)[C@H](C)[C@@H](O[C@@H]2O[C@H](C)C[C@H](N(C)C)[C@H]2O)[C@](C)(OC)C[C@@H](C)C(=O)[C@H](C)[C@H]2N(CNC(=O)OCc3cccc4ncccc34)C(=O)O[C@]12C | 32 (≈ 38.7 µM) | 16 (≈ 19.3 µM) | 0.125 (≈ 0.151 µM) | 0.125 (≈ 0.151 µM) |  |  |  |  | 
CC[C@H]1OC(=O)[C@H](C)C(=O)[C@H](C)[C@@H](O[C@@H]2O[C@H](C)C[C@H](N(C)C)[C@H]2O)[C@](C)(OC)C[C@@H](C)C(=O)[C@H](C)[C@H]2N(CNC(=O)OCc3cnc4ccccc4n3)C(=O)O[C@]12C | 8 (≈ 9.66 µM) | > 64 | 0.25 (≈ 0.302 µM) | 0.25 (≈ 0.302 µM) |  |  |  |  | 
CC[C@H]1OC(=O)[C@H](C)C(=O)[C@H](C)[C@@H](O[C@@H]2O[C@H](C)C[C@H](N(C)C)[C@H]2O)[C@](C)(OC)C[C@@H](C)C(=O)[C@H](C)[C@H]2N(CNC(=O)Nc3cnc4ccccc4c3)C(=O)O[C@]12C | 16 (≈ 19.7 µM) | > 64 | < 0.063 | 0.25 (≈ 0.308 µM) |  |  |  |  | 
CC[C@H]1OC(=O)[C@H](C)C(=O)[C@H](C)[C@@H](O[C@@H]2O[C@H](C)C[C@H](N(C)C)[C@H]2O)[C@](C)(OC)C[C@@H](C)C(=O)[C@H](C)[C@H]2N(CNC(=O)OCc3ccc4ncccc4c3)C(=O)O[C@]12C | 2 (≈ 2.42 µM) | 8 (≈ 9.67 µM) | < 0.063 | 0.25 (≈ 0.302 µM) |  |  |  |  | 
CC[C@H]1OC(=O)[C@H](C)C(=O)[C@H](C)[C@@H](O[C@@H]2O[C@H](C)C[C@H](N(C)C)[C@H]2O)[C@](C)(OC)C[C@@H](C)C(=O)[C@H](C)[C@H]2N(CNC(=O)NCc3cnc4ccccc4n3)C(=O)O[C@]12C | 4 (≈ 4.84 µM) | > 64 | 0.25 (≈ 0.302 µM) | < 0.063 |  |  |  |  | 
CC[C@H]1OC(=O)[C@@](C)(F)C(=O)[C@H](C)[C@@H](O[C@@H]2O[C@H](C)C[C@H](N(C)C)[C@H]2O)[C@](C)(OC)C[C@@H](C)C(=O)[C@H](C)[C@H]2N(CNC(=O)OCc3ccc4nccnc4c3)C(=O)O[C@]12C | 2 (≈ 2.36 µM) | 1 (≈ 1.18 µM) | < 0.063 | < 0.063 | 2.3 | 39.5 | 71.2 |  | 
CC[C@H]1OC(=O)[C@H](C)C(=O)[C@H](C)[C@@H](O[C@@H]2O[C@H](C)C[C@H](N(C)C)[C@H]2O)[C@](C)(OC)C[C@@H](C)C(=O)[C@H](C)[C@H]2N(CCNC(=O)OCc3cnc4ccccc4c3)C(=O)O[C@]12C | 32 (≈ 38 µM) | > 64 | 0.125 (≈ 0.149 µM) |  |  |  |  | > 64 | 
CC[C@H]1OC(=O)[C@@](C)(F)C(=O)[C@H](C)[C@@H](O[C@@H]2O[C@H](C)C[C@H](N(C)C)[C@H]2O)[C@](C)(OC)C[C@@H](C)C(=O)[C@H](C)[C@H]2N(CNC(=O)NCc3ccc4nccnc4c3)C(=O)O[C@]12C | 1 (≈ 1.18 µM) | 1 (≈ 1.18 µM) | < 0.063 | < 0.063 |  |  |  |  | 
CC[C@H]1OC(=O)[C@H](C)C(=O)[C@H](C)[C@@H](O[C@@H]2O[C@H](C)C[C@H](N(C)C)[C@H]2O)[C@](C)(OC)C[C@@H](C)C(=O)[C@H](C)[C@H]2N(CNC(=O)NCc3ccc4ncccc4c3)C(=O)O[C@]12C | 1 (≈ 1.21 µM) | 4 (≈ 4.84 µM) | 0.125 (≈ 0.151 µM) | 0.25 (≈ 0.303 µM) |  |  |  |  | 
CC[C@H]1OC(=O)[C@H](C)C(=O)[C@H](C)[C@@H](O[C@@H]2O[C@H](C)C[C@H](N(C)C)[C@H]2O)[C@](C)(OC)C[C@@H](C)C(=O)[C@H](C)[C@H]2N(CCCCn3cnc(-c4cccnc4)c3)C(=O)O[C@]12C [TELITHROMYCIN] | 3.9 (≈ 4.8 µM) | 18 (≈ 22.2 µM) | 0.378 (≈ 0.466 µM) | < 0.063 |  | 27.5 | 71.5 |  | inactive
CC[C@H]1OC(=O)[C@H](C)C(=O)[C@H](C)[C@@H](O[C@@H]2O[C@H](C)C[C@H](N(C)C)[C@H]2O)[C@](C)(OC)C[C@@H](C)C(=O)[C@H](C)[C@H]2N(CNC(=O)NCc3ccc4nccnc4c3)C(=O)O[C@]12C | 2 (≈ 2.42 µM) | 2 (≈ 2.42 µM) | 0.25 (≈ 0.302 µM) | < 0.063 |  |  |  |  | 
